Laboratory results taken from patent US9913811B2, “Hydroxynaphthoquinone compounds for treatment of non-small cell lung cancer” (Macau University of Science and Technology, priority 2016, dated 2018).

Assays:
Assay type in all cases: cell-based
[1] = target: T1, EGFR (Homo sapiens, UniProt P00533, L858R/T790M); assay: Western blot of EGFR phosphorylation, H1975; conditions: H1975 cells, 1, 2, 3, 4 μM, 2 h
T1 construct: H1975 cells were planted on 6-well plate, allowed to attach for 24 h, and treated; host or cells: H1975 NSCLC adenocarcinoma cells
Protocol: H1975 cells were planted on 6-well plate, allowed to attach for 24 h, and treated with the various concentrations of the compound of Formula (Ic) for 2 h. Cells were washed twice with cold PBS then lysed in RIPA lysis buffer containing protease and phosphatase inhibitors. Protein concentration of the cell lysates was measured using the Bio-Rad protein Assay kit (Bio-Rad, 7 Philadelphia, Pa., USA). After equalizing the protein concentrations of the samples, 5× laemmli buffer was added and the samples were boiled at 100° C. for 5 min. Equal amounts of protein samples (30 μg) were subjected to SDS-PAGE of a 10% gel. The separated proteins were transferred to a nitrocellulose (NC) membrane, which was then exposed to 5% non-fat dried milk in TBS containing 0.1% Tween (0.1% TBST) for 1 h at room temperature, followed by overnight incubation at 4° C. with primary antibodies. After washing three times by TBST (5 mins/time), the membranes were incubated for 1 h at room temperature with the secondary fluorescent antibodies (1:10000 dilutions) to rabbit or mouse. The signal intensity of the membranes was detected by an LI-COR Odessy scanner (Belfast, Me., USA). Actin was used as the loading control for normalization.

[2] = system: cleaved Caspase-3 and cleaved PARP in H1650 cells; assay: Western blot of cleaved caspase-3 and cleaved PARP, H1650; conditions: 24 h
Protocol: (§1) The H1650 or H1975 cells were planted on 6-well plates, allowed to attach for 24 h, and treated with 4 μM of the compound of Formula (IIa) with or without NAC (10 mM) for 24 h. Cells were washed twice with cold PBS then lysed in RIPA lysis buffer containing protease and phosphatase inhibitors. Protein concentration of the cell lysates was measured using the Bio-Rad protein Assay kit (Bio-Rad, 7 Philadelphia, Pa., USA). After equalizing the protein concentrations of the samples, 5× laemmli buffer was added and the samples were boiled at 100° C. for 5 min. Equal amounts of protein samples (30 μg) were subjected to SDS-PAGE of a 10% gel. The separated proteins were transferred to a nitrocellulose (NC) membrane, which was then exposed to 5% non-fat dried milk in TBS containing 0.1% Tween (0.1% TBST) for 1 h at room temperature, followed by overnight incubation at 4° C. with primary antibodies. After washing three times by TBST (5 mins/time), the membranes were incubated for 1 h at room temperature with secondary fluorescent antibodies (1:10000 dilutions) to rabbit or mouse. The signal intensity of the membranes was detected by an LI-COR Odessy scanner (Belfast, Me., USA).

[3] = system: H1650 cells; assay: ROS generation, H1650; conditions: 4 μM, 30 min treatment
Protocol: (§2) Apoptosis assay and analysis with flow cytometer was performed as described in Example 1B with H1650 and H1975 cells and treatment with 4 μM of the compound of Formula (IIa) for 30 min in the presence or absence of N-acetylcystein (NAC) or treatment with DMSO (control, negative control). FIG. 4A to 4D show fluorescence images of H1650 cells and FIG. 5A to 5D show fluorescence images of H1975 cells.
(§3) ROS generation was considered as the direct cause of apoptosis induced by the compound of Formula (IIa). After 30 min treatment of the H1650 and H1975 cells, the intensity of ROS increased more than 10-fold.

[4] = system: CCD-19LU; assay: MTT cytotoxicity assay, non-cancerous lung fibroblast cells; conditions: 24 h treatment
Protocol: To show the highly cytotoxic properties of the present compound of Formula (IIa), H1650, HCC827 and H1975 NSCLC cells and non-cancerous lung fibroblast cells (CCD-19LU) were treated with the compound of Formula (IIa) and respective effects were observed. H1650 cells are adenocarcinoma cells harboring an E746-A750del deletion in exon 19 and other driver mutation genes which lead to a resistance against gefitinib. HCC827 cells are adenocarcinoma cells harboring high level EGFR amplification and an E746-A750del deletion in exon 19 without gefitinib-resistance. H1975 cells are adenocarcinoma cells harboring L858R substitution in exon 21 and a T790M substitution in exon 20 which is directly associated with resistance against gefitinib. The cells were obtained from the American Type Culture Collection (ATCC) and cultured in environment of 5% CO2 at 37° C. in RPMI-1640 medium supplemented with 10% fetal bovine serum (FBS), 100 units/mL penicillin, and 100 μg/mL streptomycin. The compound of Formula (IIa) was dissolved in DMSO. […] The absorbance was measured at 570 nm by a microplate reader (Tecan, Morrisville, N.C., USA).
The cell viability was calculated relative to untreated controls, with results based on at least three independent experiments.

[5] = system: H1975 cells; assay: Annexin-V/PI apoptosis assay by flow cytometry, H1975
Protocol: (§4) Apoptosis assay was performed on gefitinib-resistant H1650 and H1975 cells. The cells (1.0×10^5 cells/well) were allowed to attach to a 6-well plate for 24 h, and the cells were treated with the various concentrations of the compound of Formula (IIa) for additional 24 h. At the end of incubation, the cells were harvested by trypsinization and washed twice with ice-cold PBS. After centrifugation and removal of the supernatants, cell pellets were resuspended in 100 μL 1×Annexin-binding buffer, 2 μL Annexin-V FITC and 2 μL PI (100 μg/ml) were added and incubated in the dark at room temperature for 15 min before further addition of 400 μL of 1×Annexin-binding buffer. The stained cells were analyzed quantitatively using a flow cytometer (BD Biosciences, San Jose, Calif., USA). Data were analyzed by Flow Jo software. FIG. 2A to 2E show fluorescence images of H1650 cells and FIG. 3A to 3E show fluorescence images of H1975 cells having been treated with the compound of Formula (IIa) at 1 μM, 2 μM, 3 μM and 4 μM; and DMSO (control, negative control).
(§5) Apoptosis assay and analysis with flow cytometer was performed as described in Example 1B with H1650 and H1975 cells and treatment with 4 μM of the compound of Formula (IIa) for 30 min in the presence or absence of N-acetylcystein (NAC) or treatment with DMSO (control, negative control). […]

[6] = system: H1975 cells; assay: ROS generation, H1975; conditions: 4 μM, 30 min treatment
Protocol: as §2, §3

[7] = system: H1650 cells; assay: Annexin-V/PI apoptosis assay by flow cytometry, H1650
Protocol: as §4, §5

[8] = system: cleaved Caspase-3 and cleaved PARP in H1975 cells; assay: Western blot of cleaved caspase-3 and cleaved PARP, H1975; conditions: 24 h
Protocol: as §1

[9] = 4 μM Formula (IIa) with 10 mM NAC

## CC(C)=CC[C@@H](O)C1=CC(=O)c2c(O)ccc(O)c2C1=O [Formula (IIa), shikonin]
[1]
  EGFR phosphorylation (tyrosine 1068, 1173, 1045): suppress EGFR phosphorylation
[2]; 4 μM
  cleaved Caspase-3 and cleaved PARP expression: increase in cleaved Caspase-3 and cleaved Poly(ADP-ribose) Polymerase (PARP)
[3]
  increase of intensity of ROS: more than 10 fold
[4]
  cytotoxicity on non-cancerous lung fibroblast cells compared with NSCLC cells: much lower cytotoxicity
[5]; H1975 cells, 1, 2, 3, 4 μM, 24 h
  induction of apoptosis: significantly induced apoptosis
[6]
  increase of intensity of ROS: more than 10 fold
[7]; H1650 cells, 1, 2, 3, 4 μM, 24 h
  induction of apoptosis: significantly induced apoptosis
[8]; 4 μM
  cleaved Caspase-3 and cleaved PARP expression: increase in cleaved Caspase-3 and cleaved Poly(ADP-ribose) Polymerase (PARP)

## CC(=O)N[C@@H](CS)C(=O)O [NAC, N-acetylcystein, reference compound]
[2]; [9]
  effect of NAC on apoptosis (cleaved Caspase-3, cleaved PARP) induced by Formula (IIa): blocked
[5]; H1975 cells, 4 μM Formula (IIa) in presence of NAC
  effect of NAC on apoptosis induced by the compound of Formula (IIa): completely blocked the apoptosis
[7]; H1650 cells, 4 μM Formula (IIa) in presence of NAC
  effect of NAC on apoptosis induced by the compound of Formula (IIa): completely blocked the apoptosis
[8]; [9]
  effect of NAC on apoptosis (cleaved Caspase-3, cleaved PARP) induced by Formula (IIa): blocked
